Earlier results on two compounds are cited in US10888535B2, “Skin disinfectant composition” (priority 2015, dated 2021).

Structures are written as SMILES.

`CCCCCCCCN=C(N)NC(N)=NCc1ccc(Cl)c(Cl)c1.O=C(O)[C@H](O)[C@@H](O)[C@H](O)[C@H](O)CO` [gluconate of olanexidine]: the solubility in water result is given as “sufficient solubility in water”.
For `CCCCCCCCNC(=N)NC(=N)NCc1ccc(Cl)c(Cl)c1` [Olanexidine, 1-(3,4-dichlorobenzyl)-5-octylbiguanide], the solubility in water entry is given as “extremely insoluble in water”.
